Measured values taken from ChEMBL document CHEMBL3046898, “Synthesis and characterization of flurbiprofen hydrazide derivatives as potential anti-HCV, anticancer and antimicrobial agents” (2013).
Active and inactive are the calls of the source. No cut-off for these calls is given here.

Legend:
Klebsiella aerogenes [1] = test: Antibacterial activity against Enterobacter aerogenes at 10 mg/ml after 24 hrs by disc diffusion method; format: functional, organism-based
Salmonella paratyphi = test: Antibacterial activity against Salmonella paratyphi at 10 mg/ml after 24 hrs by disc diffusion method; format: functional, organism-based; conditions: Salmonella enterica subsp. enterica serovar Paratyphi A
Proteus vulgaris [2] = test: Antibacterial activity against Proteus vulgaris at 10 mg/ml after 24 hrs by disc diffusion method; format: functional, organism-based
CAKI-1 = test: Cytotoxicity against human Caki1 assessed as cell growth at 10 uM after 48 hrs by SRB assay; format: functional; conditions: CAKI-1, 48 h, read-out: Activity
K562 = test: Cytotoxicity against human K562 assessed as cell growth at 10 uM after 48 hrs by SRB assay; format: functional; conditions: K562, 48 h, read-out: Activity
Candida tropicalis = test: Antifungal activity against Candida tropicalis at 10 mg/ml after 48 hrs by disc diffusion method; format: functional, organism-based
ACHN = test: Cytotoxicity against human ACHN assessed as cell growth at 10 uM after 48 hrs by SRB assay; format: functional; conditions: read-out: Activity
Nakaseomyces glabratus = test: Antifungal activity against Candida glabrata at 10 mg/ml after 48 hrs by disc diffusion method; format: functional, organism-based
MDA-MB-231 = test: Cytotoxicity against human MDA-MB-231 assessed as cell growth at 10 uM after 48 hrs by SRB assay; format: functional; conditions: MDA-MB-231, 48 h, read-out: Activity
[3] = tested on: Schwanniomyces occidentalis; test: Antifungal activity against Schwanniomyces occidentalis at 10 mg/ml after 48 hrs by disc diffusion method; format: functional, organism-based
NCI-H322M = test: Cytotoxicity against human NCI-H322M assessed as cell growth at 10 uM after 48 hrs by SRB assay; format: functional; conditions: read-out: Activity
Klebsiella aerogenes [4] = test: Antibacterial activity against Enterobacter aerogenes at 6.25 to 200 ug/ml after 24 hrs by microwell dilution method; format: functional, organism-based
HCT-116 = test: Cytotoxicity against human HCT116 assessed as cell growth at 10 uM after 48 hrs by SRB assay; format: functional; conditions: HCT-116, 48 h, read-out: Activity
[5] = tested on: Acinetobacter radioresistens; test: Antibacterial activity against Acinetobacter radioresistens at 10 mg/ml after 24 hrs by disc diffusion method; format: functional, organism-based
LOX IMVI = test: Cytotoxicity against human LOXIMVI assessed as cell growth at 10 uM after 48 hrs by SRB assay; format: functional; conditions: read-out: Activity
Hepacivirus hominis = test: Inhibition of HCV N-terminal His-tagged NS5B RNA dependent RNA polymerase expressed in Escherichia coli DH5alpha using poly rA/U12 as primer at 200 uM after 60 mins by liquid scintillation counting
UACC-257 = test: Cytotoxicity against human UACC257 assessed as cell growth at 10 uM after 48 hrs by SRB assay; format: functional; conditions: UACC-257, 48 h, read-out: Activity
MDA-MB-435 = test: Cytotoxicity against human MDA-MB-435 assessed as cell growth at 10 uM after 48 hrs by SRB assay; format: functional; conditions: MDA-MB-435, 48 h, read-out: Activity
Candida parapsilosis = test: Antifungal activity against Candida parapsilosis at 10 mg/ml after 48 hrs by disc diffusion method; format: functional, organism-based
Photorhabdus luminescens = test: Antibacterial activity against Photorhabdus luminescens at 10 mg/ml after 24 hrs by disc diffusion method; format: functional, organism-based
UACC-62 = test: Cytotoxicity against human UACC62 assessed as cell growth at 10 uM after 48 hrs by SRB assay; format: functional; conditions: UACC-62, 48 h, read-out: Activity
TK-10 = test: Cytotoxicity against human TK10 assessed as cell growth at 10 uM after 48 hrs by SRB assay; format: functional; conditions: TK-10, 48 h, read-out: Activity
Staphylococcus cohnii = test: Antibacterial activity against Staphylococcus cohnii at 6.25 to 200 ug/ml after 24 hrs by microwell dilution assay; format: functional, organism-based
U-251 = test: Cytotoxicity against human U251 assessed as cell growth at 10 uM after 48 hrs by SRB assay; format: functional; conditions: U-251, 48 h, read-out: Activity
Kluyveromyces marxianus = test: Antifungal activity against Kluyveromyces marxianus at 10 mg/ml after 48 hrs by disc diffusion method; format: functional, organism-based
NCI-H226 = test: Cytotoxicity against human NCI-H226 assessed as cell growth at 10 uM after 48 hrs by SRB assay; format: functional; conditions: NCI-H226, 48 h, read-out: Activity
OVCAR-8 = test: Cytotoxicity against human OVCAR8 assessed as cell growth at 10 uM after 48 hrs by SRB assay; format: functional; conditions: OVCAR-8, 48 h, read-out: Activity
SR = test: Cytotoxicity against human SR assessed as cell growth at 10 uM after 48 hrs by SRB assay; format: functional; conditions: read-out: Activity
SK-MEL-28 = test: Cytotoxicity against human SK-MEL-28 assessed as cell growth at 10 uM after 48 hrs by SRB assay; format: functional; conditions: SK-MEL-28, 48 h, read-out: Activity
KM12 = test: Cytotoxicity against human KM12 assessed as cell growth at 10 uM after 48 hrs by SRB assay; format: functional; conditions: KM12, 48 h, read-out: Activity
SNB-19 = test: Cytotoxicity against human SNB19 assessed as cell growth at 10 uM after 48 hrs by SRB assay; format: functional; conditions: SNB-19, 48 h, read-out: Activity
Micrococcus luteus = test: Antibacterial activity against Micrococcus luteus at 6.25 to 200 ug/ml after 24 hrs by microwell dilution method; format: functional, organism-based
HL-60(TB) = test: Cytotoxicity against human HL-60(TB) assessed as cell growth at 10 uM after 48 hrs by SRB assay; format: functional; conditions: HL-60, 48 h, read-out: Activity
NCI-H522 = test: Cytotoxicity against human NCI-H522 assessed as cell growth at 10 uM after 48 hrs by SRB assay; format: functional; conditions: NCI-H522, 48 h, read-out: Activity
Proteus vulgaris [6] = test: Antibacterial activity against Proteus vulgaris at 6.25 to 200 ug/ml after 24 hrs by microwell dilution method; format: functional, organism-based
Candida albicans = test: Antifungal activity against Candida albicans at 10 mg/ml after 48 hrs by disc diffusion method; format: functional, organism-based
SK-OV-3 = test: Cytotoxicity against human SKOV3 assessed as cell growth at 10 uM after 48 hrs by SRB assay; format: functional; conditions: SK-OV-3, 48 h, read-out: Activity
SF-539 = test: Cytotoxicity against human SF539 assessed as cell growth at 10 uM after 48 hrs by SRB assay; format: functional; conditions: SF-539, 48 h, read-out: Activity
Malme-3M = test: Cytotoxicity against human MALME-3M assessed as cell growth at 10 uM after 48 hrs by SRB assay; format: functional; conditions: read-out: Activity
HCC 2998 = test: Cytotoxicity against human HCC2998 assessed as cell growth at 10 uM after 48 hrs by SRB assay; format: functional; conditions: HCC 2998, 48 h, read-out: Activity
RPMI-8226 = test: Cytotoxicity against human RPMI8226 assessed as cell growth at 10 uM after 48 hrs by SRB assay; format: functional; conditions: RPMI-8226, 48 h, read-out: Activity
A498 = test: Cytotoxicity against human A498 assessed as cell growth at 10 uM after 48 hrs by SRB assay; format: functional; conditions: A498, 48 h, read-out: Activity

## CC(C(=O)NN1C(=O)CSC1c1ccc(C(F)(F)F)cc1)c1ccc(-c2ccccc2)c(F)c1 (configuration not stated)
Klebsiella aerogenes [1]
  Activity: inactive
Salmonella paratyphi
  Activity: inactive
Proteus vulgaris [2]
  Activity: inactive
CAKI-1
  growth at 10 µM: 33.6%
K562
  growth at 10 µM: 39.5%
Candida tropicalis
  Activity: inactive
ACHN
  growth at 10 µM: 59.6%
Nakaseomyces glabratus
  Activity: inactive
MDA-MB-231
  growth at 10 µM: 70.1%
[3]
  Activity: inactive
NCI-H322M
  growth at 10 µM: 76.9%
Klebsiella aerogenes [4]
  Activity: inactive
HCT-116
  growth at 10 µM: 45.5%
[5]
  Activity: inactive
LOX IMVI
  growth at 10 µM: 74.5%
Hepacivirus hominis
  inhibition: 8%
UACC-257
  growth at 10 µM: 94.4%
MDA-MB-435
  growth at 10 µM: 66.7%
Candida parapsilosis
  Activity: inactive
Photorhabdus luminescens
  Activity: inactive
UACC-62
  growth at 10 µM: 50.9%
TK-10
  growth at 10 µM: 99.5%
Staphylococcus cohnii
  Activity: inactive
U-251
  growth at 10 µM: 65.2%
Kluyveromyces marxianus
  Activity: inactive
NCI-H226
  growth at 10 µM: 86%
OVCAR-8
  growth at 10 µM: 86.5%
SR
  growth at 10 µM: 20.8%
SK-MEL-28
  growth at 10 µM: 99.9%
KM12
  growth at 10 µM: 46.2%
SNB-19
  growth at 10 µM: 54.7%
Micrococcus luteus
  Activity: inactive
HL-60(TB)
  growth at 10 µM: 36.9%
NCI-H522
  growth at 10 µM: 79.5%
Proteus vulgaris [6]
  Activity: inactive
Candida albicans
  Activity: inactive
SK-OV-3
  growth at 10 µM: 94.7%
SF-539
  growth at 10 µM: 63%
Malme-3M
  growth at 10 µM: 63%
HCC 2998
  growth at 10 µM: 155%
RPMI-8226
  growth at 10 µM: 43.3%
A498
  growth at 10 µM: 56.8%
